Laboratory results from patent publication US9469650B2, “Melampomagnolide B derivatives” (BOARD OF TRUSTEES OF THE UNIVERSITY OF ARKANSAS, priority 2013, dated 2016).

Key:
SK-MEL-2 = assay: panel of 60 human tumor cell lines, growth inhibition (Melanoma); conditions: Homo sapiens
A498 = assay: panel of 60 human tumor cell lines, growth inhibition (Renal Cancer); conditions: Homo sapiens
IGROV1 = assay: panel of 60 human tumor cell lines, growth inhibition (Ovarian Cancer); conditions: Homo sapiens
MDA-MB-468 = assay: panel of 60 human tumor cell lines, growth inhibition (Breast Cancer); conditions: Homo sapiens
SF-539 = assay: panel of 60 human tumor cell lines, growth inhibition (CNS Cancer); conditions: Homo sapiens
SK-MEL-28 = assay: panel of 60 human tumor cell lines, growth inhibition (Melanoma); conditions: Homo sapiens
CAKI-1 = assay: panel of 60 human tumor cell lines, growth inhibition (Renal Cancer); conditions: Homo sapiens
UACC-62 = assay: panel of 60 human tumor cell lines, growth inhibition (Melanoma); conditions: Homo sapiens
KM12 = assay: panel of 60 human tumor cell lines, growth inhibition (Colon Cancer)
SNB-19 = assay: panel of 60 human tumor cell lines, growth inhibition (CNS Cancer); conditions: Homo sapiens
MOLT-4 = assay: panel of 60 human tumor cell lines, growth inhibition (Leukemia); conditions: Homo sapiens
NCI/ADR-RES = assay: panel of 60 human tumor cell lines, growth inhibition (Ovarian Cancer); conditions: Homo sapiens
COLO 205 = assay: panel of 60 human tumor cell lines, growth inhibition (Colon Cancer); conditions: Homo sapiens
HOP-92 = assay: panel of 60 human tumor cell lines, growth inhibition (Non-Small Cell Lung Cancer); conditions: Homo sapiens
RXF 393 = assay: panel of 60 human tumor cell lines, growth inhibition (Renal Cancer); conditions: Homo sapiens
NCI-H23 = assay: panel of 60 human tumor cell lines, growth inhibition (Non-Small Cell Lung Cancer); conditions: Homo sapiens
PC-3 = assay: panel of 60 human tumor cell lines, growth inhibition (Prostate Cancer); conditions: Homo sapiens
DU-145 = assay: as above; conditions: Homo sapiens

C=C1C(=O)O[C@H]2[C@H]1CC/C(COC(=O)Nc1n[nH]c(SC)n1)=C\CC[C@@]1(C)O[C@@H]21 [JVM 64, ((1aR,7aS,10aS,10bS,E)-1a-methyl-8-methylene-9-oxo-1a,2,3,6,7,7a,8,9,10a,10b-decahydrooxireno[2′,3′:9,10]cyclodeca[1,2-b]furan-5-yl)methyl-(5-(methylthio)-1H-1,2,4-triazol-3-yl)carbamate] showed a GI50 (SK-MEL-2; SK-MEL-2) of 3.56 µM, a CC50 (SK-MEL-2; SK-MEL-2, read-out: LC50) of 62.2 µM and an IC (TGI) (SK-MEL-2; SK-MEL-2, read-out: TGI) of 13.1 µM. It also gave a GI50 (A498; A498) of 2.56 µM, a CC50 (A498; A498, read-out: LC50) of 27.8 µM and an IC (TGI) (A498; A498, read-out: TGI) of 7.67 µM. It also gave a GI50 (IGROV1; IGROV-1) of 3.66 µM, a CC50 (IGROV1; IGROV-1, read-out: LC50) of 57.8 µM and an IC (TGI) (IGROV1; IGROV-1, read-out: TGI) of 14.2 µM. For the same molecule, the GI50 (MDA-MB-468; MDA-MB-468) was 1.29 µM, the CC50 (MDA-MB-468; MDA-MB-468, read-out: LC50) was 21.8 µM and the IC (TGI) (MDA-MB-468; MDA-MB-468, read-out: TGI) was 4.04 µM. The GI50 (SF-539; SF-539) was 1.76 µM, the CC50 (SF-539; SF-539, read-out: LC50) was 9.46 µM and the IC (TGI) (SF-539; SF-539, read-out: TGI) was 4.08 µM. For the same molecule, the GI50 (SK-MEL-28; SK-MEL-28) was 1.85 µM, the CC50 (SK-MEL-28; SK-MEL-28, read-out: LC50) was 17.9 µM and the IC (TGI) (SK-MEL-28; SK-MEL-28, read-out: TGI) was 4.86 µM. For the same molecule, the GI50 (CAKI-1; CAKI-1) was 1.99 µM, the CC50 (CAKI-1; CAKI-1, read-out: LC50) was 36.6 µM and the IC (TGI) (CAKI-1; CAKI-1, read-out: TGI) was 6.93 µM. It also gave a GI50 (UACC-62; UACC-62) of 1.6 µM, a CC50 (UACC-62; UACC-62, read-out: LC50) of 15 µM and an IC (TGI) (UACC-62; UACC-62, read-out: TGI) of 4.35 µM. The GI50 (KM12; Homo sapiens, KM12) was 4.01 µM, the CC50 (KM12; Homo sapiens, KM12, read-out: LC50) was 41.5 µM and the “Percent Growth” value (KM12; KM12, Log10 Concentration −4.0) was −91%. The “Percent Growth” value (KM12; KM12, Log10 Concentration −5.0) was 17%, the “Percent Growth” value (KM12; KM12, Log10 Concentration −6.0) was 101% and the “Percent Growth” value (KM12; KM12, Log10 Concentration −7.0) was 108%. The “Percent Growth” value (KM12; KM12, Log10 Concentration −8.0) was 104%, the TGI (KM12; KM12, NCI five dose) was 1.43E−5 and the GI50 (SNB-19; SNB-19) was 15.9 µM. For the same molecule, the CC50 (SNB-19; SNB-19, read-out: LC50) was greater than 100 µM, the IC (TGI) (SNB-19; SNB-19, read-out: TGI) was 40 µM and the GI50 (MOLT-4; MOLT-4) was 2.32 µM. For the same molecule, the CC50 (MOLT-4; MOLT-4, read-out: LC50) was 88.5 µM, the IC (TGI) (MOLT-4; MOLT-4, read-out: TGI) was 6.59 µM and the GI50 (NCI/ADR-RES) was 24.7 µM. It also gave a CC50 (NCI/ADR-RES; read-out: LC50) greater than 100 µM, an IC (TGI) (NCI/ADR-RES; read-out: TGI) greater than 100 µM and a GI50 (COLO 205; COLO 205) of 1.79 µM. For the same molecule, the CC50 (COLO 205; COLO 205, read-out: LC50) was 7.35 µM, the IC (TGI) (COLO 205; COLO 205, read-out: TGI) was 3.63 µM and the GI50 (HOP-92; HOP-92, HOP-92, 5-dose assay) was 0.65 µM. The GI50 (HOP-92; HOP-92, HOP-92, NCI five dose) was 0.655 µM, the GI50 (HOP-92; HOP-92, non-small cell lung cancer cell line HOP-92) was 0.65 µM and the CC50 (HOP-92; HOP-92, read-out: LC50) was 20.4 µM. It also gave an IC (TGI) (HOP-92; HOP-92, read-out: TGI) of 3.84 µM, a GI50 (RXF 393; RXF 393, RXF 393, 5-dose assay) of 0.9 µM and a GI50 (RXF 393; RXF 393, RXF 393, NCI five dose) of 0.906 µM. It also gave a CC50 (RXF 393; RXF 393, read-out: LC50) of 6.02 µM, an IC (TGI) (RXF 393; RXF 393, read-out: TGI) of 2.41 µM and a GI50 (RXF 393; RXF 393, renal cancer cell line RXF 393) of 0.9 µM. The GI50 (NCI-H23; NCI-H23) was 3.21 µM, the CC50 (NCI-H23; NCI-H23, read-out: LC50) was 63.6 µM and the IC (TGI) (NCI-H23; NCI-H23, read-out: TGI) was 14.1 µM. The GI50 (PC-3; PC-3) was 8.51 µM, the CC50 (PC-3; PC-3, read-out: LC50) was 77 µM and the IC (TGI) (PC-3; PC-3, read-out: TGI) was 26.8 µM. For the same molecule, the GI50 (DU-145; DU-145) was 3.49 µM, the CC50 (DU-145; DU-145, read-out: LC50) was 38.4 µM and the IC (TGI) (DU-145; DU-145, read-out: TGI) was 13.1 µM.
